Test results from patent publication US20060287528A1, “Novel crystalline forms of a phosphoric acid salt of a dipeptidyl peptidase-iv inhibitor” (priority 2003, published 2006).

What was measured:
[1] = Solubility in water; format: physicochemical
[2] = Solid-state stability and interconversion of the crystalline forms; format: physicochemical; conditions: for temperature range in which the polymorph is the stable form (enantiotropic transition temperature): Form I / Form III enantiotropic pair, transition about 34° C.

Row | SMILES | solubility [1] | temperature range in which the polymorph is the stable form (enantiotropic transition temperature) [2] | time for conversion to anhydrate Form I or Form III or mixtures thereof ([2]; at about 45° C., form is metastable)
1 | N[C@@H](CC(=O)N1CCn2c(nnc2C(F)(F)F)C1)Cc1cc(F)c(F)cc1F [anhydrate Form I] | > 120 mg/mL | above 34 °C | –
2 | N[C@@H](CC(=O)N1CCn2c(nnc2C(F)(F)F)C1)Cc1cc(F)c(F)cc1F [desolvated anhydrate Form II] | – | – | about 2 h
3 | N[C@@H](CC(=O)N1CCn2c(nnc2C(F)(F)F)C1)Cc1cc(F)c(F)cc1F [anhydrate Form III] | – | below 34 °C | –
